The numbers were not newly measured in patent US20110281813A1, “METHOD OF TREATING C-KIT POSITIVE RELAPSED ACUTE MYELOID LEUKEMIA” (priority 2008, published 2011), which cites them from elsewhere.

The subject of the data set is relapsed/ refractory AML.

Structures can show the parent of a compound that is named as a salt.

Take `Cc1ccc(NC(=O)c2ccc(CN3CCN(C)CC3)cc2)cc1Nc1nccc(-c2cccnc2)n1` [Imatinib mesylate, 4-(4-methylpiperazin-1-ylmethyl)-N-[4-methyl-3-(4-(pyridin-3-yl)pyrimidin-2-ylamino)phenyl]-benzamide]: the single agent activity entry is “has single agent activity”.
